Measurements: ChEMBL document CHEMBL4609972, “Histone deacetylase 8 (HDAC8) and its inhibitors with selectivity to other isoforms: An overview” (Eur J Med Chem, 2019)
Square brackets hold non-standard residues; d marks the D form. Peptide text beside a SMILES is read from it. * marks the point of attachment. Asu = N[C@@H](CCCCCC(=O)O)C(=O)O; NHOH = ON*

Key:
[1] = target: T1, Protein deacetylase HDAC6 (Homo sapiens, UniProt Q9UBN7); experiment: Inhibition of HDAC6 (unknown origin)
T1 sequence (Q9UBN7 whole entry): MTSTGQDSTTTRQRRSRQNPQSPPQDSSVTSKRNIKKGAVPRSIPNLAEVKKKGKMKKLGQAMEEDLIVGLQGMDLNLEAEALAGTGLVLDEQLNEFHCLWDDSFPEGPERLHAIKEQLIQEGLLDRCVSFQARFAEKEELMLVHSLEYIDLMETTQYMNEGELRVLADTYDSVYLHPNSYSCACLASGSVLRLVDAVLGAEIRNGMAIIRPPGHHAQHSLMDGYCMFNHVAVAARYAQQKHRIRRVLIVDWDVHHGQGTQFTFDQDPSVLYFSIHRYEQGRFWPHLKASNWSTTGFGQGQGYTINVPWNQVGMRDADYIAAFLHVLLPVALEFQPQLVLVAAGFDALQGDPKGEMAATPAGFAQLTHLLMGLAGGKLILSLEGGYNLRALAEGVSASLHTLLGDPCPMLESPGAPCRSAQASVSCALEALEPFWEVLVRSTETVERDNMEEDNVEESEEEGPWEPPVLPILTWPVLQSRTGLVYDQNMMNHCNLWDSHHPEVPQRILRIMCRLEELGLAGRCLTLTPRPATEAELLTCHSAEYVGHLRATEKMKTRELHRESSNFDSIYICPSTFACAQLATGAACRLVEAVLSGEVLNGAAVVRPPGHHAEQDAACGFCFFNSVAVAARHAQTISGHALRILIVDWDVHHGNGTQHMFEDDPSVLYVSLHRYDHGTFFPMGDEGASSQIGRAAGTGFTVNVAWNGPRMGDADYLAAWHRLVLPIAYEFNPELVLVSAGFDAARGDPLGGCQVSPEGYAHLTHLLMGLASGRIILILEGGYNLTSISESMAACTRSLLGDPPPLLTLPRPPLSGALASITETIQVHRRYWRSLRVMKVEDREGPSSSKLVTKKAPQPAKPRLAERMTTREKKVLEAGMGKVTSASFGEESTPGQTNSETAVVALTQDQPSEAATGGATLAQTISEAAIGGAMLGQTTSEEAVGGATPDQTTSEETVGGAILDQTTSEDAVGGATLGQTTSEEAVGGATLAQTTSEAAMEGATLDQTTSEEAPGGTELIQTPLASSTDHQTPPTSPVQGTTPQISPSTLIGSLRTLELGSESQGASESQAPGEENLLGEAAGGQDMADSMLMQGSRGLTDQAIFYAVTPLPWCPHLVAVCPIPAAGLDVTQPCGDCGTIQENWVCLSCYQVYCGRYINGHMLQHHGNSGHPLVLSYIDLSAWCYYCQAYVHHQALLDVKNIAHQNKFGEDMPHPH

Histone deacetylase 8 = target: T2, Histone deacetylase 8 (Homo sapiens, UniProt Q9BY41); experiment: Inhibition of HDAC8 (unknown origin)
T2 sequence (Q9BY41 whole entry): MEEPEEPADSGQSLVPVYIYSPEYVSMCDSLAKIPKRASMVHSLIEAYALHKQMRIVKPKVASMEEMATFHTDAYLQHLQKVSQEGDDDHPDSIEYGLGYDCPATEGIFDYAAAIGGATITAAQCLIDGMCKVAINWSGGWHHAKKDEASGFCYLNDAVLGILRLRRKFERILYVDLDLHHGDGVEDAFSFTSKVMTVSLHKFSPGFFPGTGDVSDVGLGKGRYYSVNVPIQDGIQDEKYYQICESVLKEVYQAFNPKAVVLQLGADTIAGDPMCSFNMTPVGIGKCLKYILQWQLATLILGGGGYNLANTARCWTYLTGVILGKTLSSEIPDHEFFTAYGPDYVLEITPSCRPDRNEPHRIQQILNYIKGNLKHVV

Histone deacetylase = experiment: Inhibition of HDAC (unknown origin); assay type: protein assay, Homo sapiens
[2] = target: 72 kDa type IV collagenase (Homo sapiens, UniProt P08253); experiment: Inhibition of MMP2 (unknown origin)
Sequence of 72 kDa type IV collagenase (P08253 whole entry): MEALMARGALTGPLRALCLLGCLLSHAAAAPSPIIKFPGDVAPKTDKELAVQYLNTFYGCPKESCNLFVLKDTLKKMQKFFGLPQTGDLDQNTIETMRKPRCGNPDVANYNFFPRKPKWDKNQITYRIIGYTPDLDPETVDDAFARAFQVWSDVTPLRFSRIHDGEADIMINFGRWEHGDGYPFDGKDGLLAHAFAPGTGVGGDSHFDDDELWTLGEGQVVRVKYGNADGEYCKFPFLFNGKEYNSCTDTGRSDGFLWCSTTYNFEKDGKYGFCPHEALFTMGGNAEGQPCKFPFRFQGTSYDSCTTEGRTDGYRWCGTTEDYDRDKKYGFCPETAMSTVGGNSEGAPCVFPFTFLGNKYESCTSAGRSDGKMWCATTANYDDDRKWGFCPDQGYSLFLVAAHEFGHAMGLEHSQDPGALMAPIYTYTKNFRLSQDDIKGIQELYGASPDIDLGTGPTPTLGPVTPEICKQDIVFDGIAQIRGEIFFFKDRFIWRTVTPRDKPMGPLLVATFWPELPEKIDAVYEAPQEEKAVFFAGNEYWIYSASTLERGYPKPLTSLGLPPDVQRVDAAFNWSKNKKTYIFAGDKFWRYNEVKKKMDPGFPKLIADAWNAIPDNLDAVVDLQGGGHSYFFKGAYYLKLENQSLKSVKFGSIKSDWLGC

IC50 [1] [µM]	IC50 (Histone deacetylase 8) [µM]	SMILES	other results
0.376		O=C(NO)c1ccc(CN(CCO)C(=O)Cc2ccccc2)cc1	
	0.053	O=C(NO)c1cccc(-c2nc(CSc3ccccc3)n[nH]2)c1	
1.4		O=C(NO)c1ccc(NCc2csc3ccccc23)cc1	
0.417		CC(C)[C@@H](C#Cc1ccc(C(=O)NO)cc1)NC(=O)C1Cc2ccccc2O1 (some centres undefined)	

Further lines, the compound ahead of its results:

SMILES	IC50 [1] [µM]	IC50 (Histone deacetylase 8) [µM]	other results
O=C(CCCCCCC(=O)Nc1cc(C(F)(F)F)ccc1Cl)NO		0.119	
CC[C@H](C)[C@@H]1NC(=O)[C@@H](Cc2ccc(OC)cc2)NC(=O)[C@H](CCCCCC(=O)NO)NC(=O)[C@H]2CCCN2C1=O (cyclo([Asu](NHOH)[dY](Me)I[dP]))			IC50 (Histone deacetylase): 0.00332 µM
O=C(CCCCCNC(=O)c1ccc(NC(=O)NC(C(=O)Nc2cccc(C(F)(F)F)c2)c2ccccc2)cc1)NO (centres undefined)		0.967	
O=C(O)CC[C@@H](NC(=O)Cc1ccc(Br)cc1)C(=O)NCc1ccc([N+](=O)[O-])cc1		2.89	IC50 [2]: 2.89 µM
